Entries after “also recorded” stand apart in the source; their conditions may differ.
Assays:
[1] = test system: RgSBP (RUMGNA_02698, solute binding protein); assay: Fluorescence spectroscopy of ligand binding to RgSBP; set-up: species or system R. gnavus ATCC 29149; conditions: for change in fluorescence emission at 350 nm upon sequential additions of ligand: sequential additions of 10 μM ligand
Experimental: Ligand binding to RgSBP was investigated by measuring changes in the intrinsic protein fluorescence upon addition of 2,7-anhydro-Neu5Ac or Neu5Ac as potential ligands. (Andrew Bell with help from student in Gavin Thomas's Group,York). Due to the presence of […] in RgSBP, fluorescence changes were measured by exciting at 297 nm. Under these conditions the protein has a maximal emission at 331 nm. […] 2,7-Anhydro-Neu5Ac caused a 16% quench in the fluorescence of the protein at ligand saturation (FIG. 3A).
The binding of RgSBP to 2,7-anhydro-Neu5Ac or Neu5Ac was further investigated by measuring changes in fluorescence emission at 350 nm when RgSBP was excited at 297 nm upon sequential additions of 10 μM ligands.
All protein fluorescence experiments used a FluoroMax 3 fluorescence spectrometer with connecting water bath at 37° C. Because of the presence of 15 […] residues, the protein was excited at 297 nm with slit widths of 5 nm. […] Cumulative fluorescence changes from titration of the protein with ligand were plotted in GraphPad and fitted to a single rectangular hyperbola. The Kd values reported were averaged from three separate ligand titration experiments.
To determine the specificity of the predicted transporter, the gene encoding the predicted SBP was amplified by PCR from the R. gnavus ATCC 29149 genome, cloned into the pHISTEV expression vector, heterologously expressed in E. coli and the His6-tag recombinant protein purified by immobilised metal ion affinity chromatography (IMAC). Ligand binding to RgSBP was investigated by measuring changes in the intrinsic protein fluorescence upon addition of 2,7-anhydro-Neu5Ac or Neu5Ac as potential ligands. Due to the presence of 7 tryptophan residues in RgSBP, fluorescence changes were measured by exciting at 297 nm. Under these conditions the protein has a maximal emission at 331 nm. […] To confirm the novel specificity of 2,7-anhydro-Neu5Ac over Neu5Ac we followed sequential changes in fluorescence at 350 nm following additions of 10 μM of the two ligands. […] Conversely, when 2,7-anhydro-Neu5Ac is added first the quench is observed and additions of 10 μM Neu5Ac caused no further reduction or reverse in the intensity (FIG. 3d), indicating Neu5Ac is unable to displace 2,7-anhydro-Neu5Ac, further supporting the specificity of the interaction between RgSBP and 2,7-anhydro-Neu5Ac.

[2] = test system: RgSBP; assay: Saturation transfer difference (STD) NMR with RgSBP; assay type: binding, R. gnavus ATCC 29149; conditions: RgSBP 50 μM with 2,7-anhydro-Neu5Ac 0.5 mM and Neu5Ac 1 mM
Experimental: An amicon centrifuge filter unit with a 10 kDa MW cut-off was used to exchange the protein in 25 mM d19-2,2-bis (hydroxymethyl)-2,2′,2″-nitrilotriethanol pH* 7.4 (uncorrected for the deuterium isotope effect on the pH glass electrode) D2O buffer and 50 mM NaCl. 2,7-anhydro-Neu5Ac and Neu5Ac were dissolved in 25 mM d19-2,2-bis(hydroxymethyl)-2,2′,2″-nitrilotriethanol pH* 7.4, 50 mM NaCl. Characterization of ligand binding by Saturation Transfer Difference NMR Spectroscopy (Mayer, M. and Meyer, B. (1999) was performed on a Bruker Avance 800.23 MHz at 298 K. The on- and off-resonance spectra were acquired using a train of 50 ms Gaussian selective saturation pulses using a variable saturation time from 0.5 s to 4 s, for binding epitope mapping determination while only 0.5 s of saturation time for each selected frequency was used to perform the DEEP-STD NMR experiments (Monaco et al., 2017). The water signal was suppressed by using the excitation sculpting technique (Hwang et al., 1995), while the remaining protein resonances were filtered using a T2 filter of 40 ms. All the spectra were performed with a spectral width of 10 KHz and 32768 data points using 256 or 512 scans. This time due to the absence of a 3D structure it was impossible to derive the resonances for saturation of aliphatic and aromatic residues found in the binding site as required by the DEEP-STD NMR technique. […]

[3] = biological target: RgNanA (RUMGNA_02692, sialic acid aldolase) (Mediterraneibacter gnavus, UniProt A7B555); assay: Sialic acid aldolase activity assay coupled to lactate dehydrogenase, RgNanA; conditions: 10 mM sialic acid, 37° C., pH 7.0, A340 nm
RgNanA (RUMGNA_02692, sialic acid aldolase), sequence (A7B555 whole entry): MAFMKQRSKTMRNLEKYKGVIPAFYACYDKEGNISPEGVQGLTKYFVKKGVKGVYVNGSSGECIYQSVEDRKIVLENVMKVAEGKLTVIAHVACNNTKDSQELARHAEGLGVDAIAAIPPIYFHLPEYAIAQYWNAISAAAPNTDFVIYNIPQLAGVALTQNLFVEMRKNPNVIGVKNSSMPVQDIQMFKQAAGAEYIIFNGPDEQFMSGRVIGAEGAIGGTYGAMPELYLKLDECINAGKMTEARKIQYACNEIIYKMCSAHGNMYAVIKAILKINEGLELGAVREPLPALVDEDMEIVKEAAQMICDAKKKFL
Experimental: Aldolase cleavage was measured by monitoring the decrease in absorbance at 340 nm (A340 nm) as NADH is converted to NAD by lactate dehydrogenase in a coupled reaction where pyruvate is released from sialic acid by the aldolase. Reactions were performed in a 100 μl volume with final concentrations of 150 μM NADH (Sigma, St Louis, USA), 0.5 U LDH (Sigma, St Louis, USA), 10 mM sialic acid (Neu5Ac or 2,7-anhydro-Neu5Ac) and 1.5 μg purified RgNanA or EcNanA (E. coli aldolase CAS: 9027-60-5, Carbosynth, UK) in 50 mM Na-phosphate buffer (pH 7.0). The reactions were performed at 37° C. and monitored using FLUOstar OPTIMA (BMG LABTECH). For kinetics experiments, the sialic acid concentration was varied at 20, 10, 5, 4, 2, 1, 0.4, 0.2, 0.1 mM and the initial rate of reaction determined for each concentration in triplicate before analysis was performed by fitting the data to a Michaelis-Menten using Graph Pad Prism (V 5.03).
The substrate specificity of RgNanA was determined using a coupled activity assay where pyruvate released during the conversion of sialic acid to ManNAc is converted to lactate by a lactate dehydrogenase and the subsequent loss of absorbance at 340 nm measured as NADH is converted to NAD^+. A commercially available E. coli sialic acid aldolase (EcNanA) was included as a control and enzymes were tested for activity against 2,7-anhydro-Neu5Ac and Neu5Ac. […] The kinetic parameters of RgNanA were determined by calculating the initial rate of reaction with increasing Neu5Ac concentrations. A Michaelis-Menten curve was fitted to the data and kinetic parameters determined (FIG. 7b).

SMILES	quench in the fluorescence of the protein ([1]; RgSBP excited at 297 nm, 10 μM or 20 μM ligand, ligand saturation) [%]	change in fluorescence emission at 350 nm upon sequential additions of ligand ([1]; excited at 297 nm)	Kd ([1]; titration of 0.5 μM RgSBP, triplicate, hyperbolic fit) [nM]	transfer of magnetization as saturation from the protein to the ligand [2]	aldolase activity against substrate [3]	change in the fluorescence emission spectra of RgSBP ([1]; excited at 297 nm, ligand at 10 μM, 20 μM or 70 μM)
CC(=O)N[C@H]1C2OC(C(=O)O)(C[C@@H]1O)O[C@@H]2[C@H](O)CO (stereo partly drawn) [2,7-anhydro-Neu5Ac]	~16	a quench is observed; also recorded: large decrease in intensity	1350	clearly observed	neither enzyme showed activity	–
CC(=O)N[C@H]1[C@H]([C@H](O)[C@H](O)CO)OC(O)(C(=O)O)C[C@@H]1O (stereo partly drawn) [Neu5Ac, N-acetylneuraminic acid]	–	no change in fluorescence is observed; also recorded: no change in intensity was observed	–	complete absence of saturation transfer	showed activity	did not lead to any change in the spectra

Reference: patent US20210254138A1, “SIALIC ACID TRANSPORTER PROTEINS AS BIOMARKERS AND DRUG TARGETS” (Quadram Institute Bioscience, priority 2018, published 2021)
